The source of these data is patent US7989450B2, “Functionalized diarylisoxazoles inhibitors of ciclooxygenase” (Universita' Degli Studi Di Bari, priority 2008, dated 2011).

For orientation: melting point means the temperature of the solid-liquid transition. The pIC50 is −log10 of the IC50, conventionally taken in molar units. The low end stands for a large IC50, the high end for a small IC50. By inhibition is commonly meant the change of the read-out against control, counted positive when it falls.

Data set [1] concerns the target T1, monocyte COX-2 induced by LPS (Homo sapiens, UniProt P35354).
T1 construct: incubated with heparinised whole blood in the presence of LPS (10 microg/ml) for 24 hours at 37° C; endogenous in cells; host or cells: LPS-stimulated monocytes in heparinised whole blood of healthy human volunteers
T1 sequence (P35354 18-604): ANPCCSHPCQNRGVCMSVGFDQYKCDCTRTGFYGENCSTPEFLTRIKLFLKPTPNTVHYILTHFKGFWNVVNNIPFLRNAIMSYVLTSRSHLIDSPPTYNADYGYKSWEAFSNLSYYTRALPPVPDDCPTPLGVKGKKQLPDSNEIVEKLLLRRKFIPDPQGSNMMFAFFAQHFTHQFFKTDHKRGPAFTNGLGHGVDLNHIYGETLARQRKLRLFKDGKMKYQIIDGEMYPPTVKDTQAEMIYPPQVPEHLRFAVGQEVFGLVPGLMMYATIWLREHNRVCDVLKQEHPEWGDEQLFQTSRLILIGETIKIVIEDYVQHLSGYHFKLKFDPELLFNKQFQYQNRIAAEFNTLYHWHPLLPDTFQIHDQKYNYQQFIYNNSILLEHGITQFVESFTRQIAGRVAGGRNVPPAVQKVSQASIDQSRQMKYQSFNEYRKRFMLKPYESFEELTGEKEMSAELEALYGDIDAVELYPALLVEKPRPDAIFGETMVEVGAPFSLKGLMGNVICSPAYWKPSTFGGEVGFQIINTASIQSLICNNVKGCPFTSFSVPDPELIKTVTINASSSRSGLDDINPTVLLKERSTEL
The experiment in a line: Biosynthesis of PGE2 in LPS-stimulated human whole blood, index of monocyte COX-2 activity. The format is cell-based. To be noted: human whole blood method, 24 hours at 37° C.; for pIC50: LPS 10 microg/ml, PGE2 by RIA.
Description: (§1) Fourteen healthy volunteers (25-34 years) were enrolled to take part in the study and were studied on various occasions. Peripheral venous blood samples were taken from donors who had not taken FANS in the 2 weeks prior to the study.
Biosynthesis of PGE2 in the Whole Blood as an Index of Monocyte COX-2 Activity Induced by LPS.
Aliquots of 1 ml of whole blood taken from the cubital vein with a syringe containing heparin (20 IU/ml blood) were incubated with lipopolysaccharide (LPS, from Escherichia coli 026:B6; Sigma Chemical Company, St. Louis, Mo.) (10 μg/ml) for 24 hours at 37° C. The plasma was separated by centrifugation and kept at −70° C. The PGE2 was measured with a specific radioimmunological assay (RIA) as an index of monocyte COX-2 activity induced by LPS.

The target of another data set is T2, platelet COX-1 (Homo sapiens, UniProt P23219).
T2 construct: 1 ml aliquots of whole blood were immediately transferred into glass test tubes and left to coagulate at 37° C; endogenous in cells; host or cells: platelets in whole blood of healthy human volunteers
T2 sequence (P23219 24-599): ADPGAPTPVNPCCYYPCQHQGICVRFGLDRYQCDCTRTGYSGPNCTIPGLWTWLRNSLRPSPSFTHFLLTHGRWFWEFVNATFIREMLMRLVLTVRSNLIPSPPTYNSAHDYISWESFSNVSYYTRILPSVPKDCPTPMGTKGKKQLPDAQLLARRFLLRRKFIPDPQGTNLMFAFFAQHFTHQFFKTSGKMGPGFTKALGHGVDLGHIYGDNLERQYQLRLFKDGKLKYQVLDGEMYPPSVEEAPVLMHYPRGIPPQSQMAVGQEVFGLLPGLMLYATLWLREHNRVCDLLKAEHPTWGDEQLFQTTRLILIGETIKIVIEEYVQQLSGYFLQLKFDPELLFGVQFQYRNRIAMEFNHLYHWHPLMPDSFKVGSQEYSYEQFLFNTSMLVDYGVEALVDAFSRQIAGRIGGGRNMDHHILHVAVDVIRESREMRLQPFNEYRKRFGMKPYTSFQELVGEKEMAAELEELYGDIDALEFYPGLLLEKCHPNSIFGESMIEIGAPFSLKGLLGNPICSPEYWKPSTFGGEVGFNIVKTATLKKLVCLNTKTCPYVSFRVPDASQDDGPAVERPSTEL
As to the kind of experiment: Biosynthesis of TXB2 in human whole blood left to coagulate, index of platelet COX-1 activity. The format is cell-based. To be noted: human whole blood method, coagulation 1 hour at 37° C., TXB2 by RIA.

For data set [2] the following is noted: secondary prevention, various groups of patients; cited from earlier work.

pIC50: −log10 of the molar value.

Description for platelet COX-1: as §1
1 ml aliquots of whole blood were immediately transferred into glass test tubes and left to coagulate at 37° C. for 60 minutes.

Regarding `FC(F)(F)c1onc(-c2ccc(Cl)o2)c1-c1ccccc1` [Example 5, 3-(5-Chlorofuran-2-yl)-4-phenyl-5-(trifluoromethyl)isoxazole], the melting point fell in the range of 55 to 57 °C. The same compound had a negative-log IC50 (pIC50) in data set [1] of less than 4.00. The same compound gave a negative-log IC50 (pIC50) at platelet COX-1 of 6.09.
The compound `O=C(OCCCN1CCOCC1)c1onc(-c2ccc(Cl)o2)c1-c1ccccc1` [Example 19, 3-(Morpholin-1-yl)propyl[3-(5-chlorofuran-2-yl)-4-phenylisoxazol-5-yl]carboxilate] had a melting point of 82 to 83.7 °C.
Take `COC(=O)c1c(-c2ccc(Cl)o2)noc1-c1ccccc1` [Example 22, Methyl3[-(5-chlorofuran-2-yl)-5-phenylisoxazol-4-yl]carboxylate]: the melting point is 113 to 117 °C (dec.).
Same read-out and setting: in the case of `O=C(OCCCBr)c1onc(-c2ccc(Cl)o2)c1-c1ccccc1` [Example 20, 3-Bromopropyl[3-(5-chlorofuran-2-yl)-4-phenylisoxazol-5-yl]carboxylate] it was 100 to 101 °C.
Same read-out and setting: in the case of `O=C(OCCCO[N+](=O)[O-])c1onc(-c2ccc(Cl)o2)c1-c1ccccc1` [Example 21, 3-(Nitroxy)propyl[3-(5-chlorofuran-2-yl)-4-phenylisoxazol-5-yl]carboxylate] it was 79 to 79.8 °C.
Regarding `CC(=O)OCc1onc(-c2ccc(Cl)o2)c1-c1ccccc1` [Example 18, 5-Acetoxymethyl-3-(5-chlorofuran-2-yl)-4-phenylisoxazole], the pIC50 in data set [1] is less than 4.00; at platelet COX-1, 5.28.
`Cc1onc(-c2ccc(Cl)o2)c1-c1ccccc1F` [Example 7, 3-(5-Chlorofuran-2-yl)-4-(2-fluorophenyl)-5-methylisoxazole]: the pIC50 is less than 4.00 in data set [1] and 5.72 against platelet COX-1.
`O=C(O)c1onc(-c2ccc(Cl)o2)c1-c1ccccc1` [Example 15, [3-(5chlorofuran-2-yl)-4-phenylisoxazol-5-yl]carboxylic acid] had a melting point of 168 to 170 °C.
The same measure, in the same setting: in the case of `Cc1onc(-c2ccc(Br)o2)c1-c1ccccc1` [Example 14, 3-(5-Bromofuran-2-yl)-4-phenyl-5-methylisoxazole] it was 93 to 96 °C.
`OCc1onc(-c2ccc(Cl)o2)c1-c1ccccc1` [Example 17, 3-(5-Chlorofuran-2-yl)-4-phenyl-5-hydroxymethylisoxazole] registered a melting point of 102 to 103 °C. Besides, the inhibition at 100 µM in data set [1] (100 μM, LPS, read-out: COX-2 inhibition (I) at 100 μM) was 44%. Further, the negative logarithm of the IC50 (pIC50) at platelet COX-1 is 5.38.
In the case of `Cc1onc(-c2ccc(Cl)o2)c1-c1ccc(F)cc1` [Example 6, 3-(5-Chlorofuran-2-yl)-4-(4-fluorophenyl)-5-methylisoxazole], the melting point is 103.7 to 105.2 °C. In data set [1], the pIC50 is less than 4.00. This compound had a pIC50 on platelet COX-1 of 5.72.
Consider `CC1(O)ON=C(c2ccc(Cl)o2)C1c1ccc(F)cc1` (stereo not drawn) [Example 2, 3-(5-Chlorofuran-2-yl)-4-(4-fluorophenyl)-5-hydroxy-5-methyl-2-isoxazoline], for which the melting point lay within 101 to 102 °C.
For `Cc1onc(-c2ccco2)c1-c1ccccc1` [Example 12, 3-(Furan-2-yl)-4-phenyl-5-methylisoxazole], the melting point was 93 to 96 °C.
`CC(=O)Oc1ccccc1C(=O)O` [aspirin, acetylsalicylic acid]: in data set [2], the “prevention of non fatal vascular events” value is recorded as 25-30% and the “prevention of vascular death” value was 15-20%.
Consider `COC(=O)c1onc(-c2ccc(Cl)o2)c1-c1ccccc1` [Example 16, Methyl [3-(5-chlorofuran-2-yl)-4-phenylisoxazol-5-yl]carboxylate], for which the melting point was in the range of 130 to 131 °C.
